Assay results as given in patent publication US11337916B2, “Myrciaria dubia fruit extracts rich in organic acids, cosmetic compositions comprising same and cosmetic uses thereof” (ISP INVESTMENTS LLC, priority 2018, dated 2022).

What was measured:
creatine kinase = test: Creatine kinase activity on "tired" dermal fibroblast cultures; type: cell-based; settings: 0.1% E1 extract or vitamin C at 4 μg/mL, two days of treatment
Procedure: The aim of this study is to determine the level of creatine kinase activity in dermal fibroblast cultures. The function of this enzyme is to catalyse the conversion of creatine to phosphocreatine, thus providing a rapidly usable energy reserve. This activity measurement is performed on cultures of “tired” dermal fibroblasts treated with 0.1% E1 Myrciaria extract (volume/volume), i.e. diluted 1/1000th in the culture medium. Protocol: Dermal fibroblast cultures are “tired” by a few replications (cells used between passes 15 and 20) and are fed with a nutrient-poor medium (without glucose) for 3 days. These cultures are treated with 0.1% E1 Myrciaria extract, or with vitamin C at 4 μg/mL as a positive control, from the second day of stress and for the remaining two days of stress. Two days after the start of treatment, a measurement of creatine kinase activity is performed using a kit (Abcam—ref: ab155901). For this purpose, the fibroblasts are detached with the CK buffer contained in the kit, recovered and centrifuged at 4000 g for 5 min at 4° C. The activity is then measured for each sample according to the kit protocol. Kinetics are obtained by a colorimetric reading with the Synergy 2 spectrometer (Biotek) coupled to Gen5 software.

reconstructed epidermis = test: Morphology of reconstructed epidermis in tired condition (rotenone), haematoxylin-eosin staining; type: cell-based, human; settings: rotenone added on day 12 of reconstruction, 3 h incubation
Text: The aim of this study is to create a model of reconstructed “tired” human skin. To do this, the skin is reconstructed using adult donor keratinocytes and a respiratory chain inhibitor (rotenone) to create a lack of energy.
The use of a respiratory chain inhibitor such as rotenone creates mitochondrial dysfunction, including ATP depletion. Therefore, lack of cellular energy was equated in our model to a state of cellular fatigue (Han G et al, The mitochondrial complex I inhibitor rotenone induces endoplasmic reticulum stress and activation of GSK-3β in cultured rat retinal cells, Invest Ophthalmol Vis Sci. 31; 55(9):5616-28, 2014). These cultures are treated during the reconstruction with 0.1% E1 Myrciaria extract (volume/volume), i.e. diluted 1/1000th or 1% (volume/volume), i.e. diluted 1/100th in the culture medium.
Protocol: On day 12 of epidermal reconstruction, rotenone is added to the culture medium. A control condition is maintained without adding rotenone but changing the culture medium anyway. After 3 h incubation with the inhibitor, the medium is changed to a new medium containing 0.1% E1 Myrciaria extract and the epidermis is incubated again for 48 h. The placebo condition contains PBS (phosphate buffer saline) in the culture medium. The morphology of the skin is then observed by a Haematoxylin-Eosin (HE) staining. […]

[1] = tested on: PFKFB3 (6-phosphofructo-2-kinase/fructose-2,6-biphosphatase 3); test: PFKFB3 expression on reconstructed epidermis in tired condition (immunofluorescence); type: cell-based, human; settings: rotenone alone
Text: The aim of this study is to determine the level of expression of PFKFB3 (6-phosphofructo-2-kinase/fructose-2,6-biphosphatase 3) in a model of “tired” reconstructed human skin.
PFKFB3 is involved in the glycolysis process. It is an inducible enzyme that is expressed by the active epithelial cells of the epidermis. It enables the activation of the enzyme PFK-1 (phosphofructokinase-1), which limits this glycolysis process.
To obtain “tired” skin, this is reconstructed using adult donor keratinocytes and a respiratory chain inhibitor (rotenone) to create a lack of energy (see example 6). These cultures are treated during reconstruction with 0.1% E1 Myrciaria extract (volume/volume), i.e. diluted 1/1000th in the culture medium.
Protocol: On day 12 of epidermal reconstruction, rotenone is added to the culture medium. A control condition is maintained without adding rotenone but changing the culture medium anyway. After 3 h incubation with the inhibitor, the medium is changed to a new medium containing 0.1% E1 Myrciaria extract and the epidermises are incubated again for 48 h. […]
For staining, the cuts are dewaxed by xylene and ethanol baths and then rinsed. […] The cuts are then examined under an Epi-fluorescence microscope (Zeiss Axiovert 200M microscope). A quantification of the fluorescence, using Volocity® image analysis software (PerkinElmer, Inc.), is performed from the obtained photographs.

Row | SMILES | creatine kinase activity increase compared to untreated "tired" cells (creatine kinase) | morphology of reconstructed epidermis versus control (HE staining) (reconstructed epidermis) | PFKFB3 expression change compared to unstressed epidermises [1] [%]
1 | O=C1O[C@H]([C@@H](O)CO)C(O)=C1O [vitamin C] | +44% | – | –
2 | C=C(C)[C@H]1Cc2c(ccc3c2O[C@@H]2COc4cc(OC)c(OC)cc4[C@@H]2C3=O)O1 [rotenone] | – | thinner epidermis than the control and a more damaged basal layer | −20
